Read-outs that look alike come from different tables or passages of the source.

The subject of data set [1] is CAM (choriallantoic membrane). The settings on record: CAM assay; for angiogenesis: filter paper with 10 or 50 μM solution 10 μl, three days. As to the method: Particularly, the fertilized egg was incubated in a 37° C. 55% humid incubator. 10 days later, the egg albumin was removed by using a 2 ml hypodermic syringe in order to separate CAM and yolk sac from the shell membrane. On 10.5th day, the egg shell was removed (1 cm^2). […] Three days later, 1-2 ml of 10% fat emulsion was injected into chorioallantoic membrane, followed by observation under a microscope.

The test system of data set [2] is VEGF. The settings on record: 50 μM; cell line not clearly stated (SH-SY5Y implied).
Procedure: Total RNA was extracted by using RNase Spin column (Qiagen, USA). cDNA was synthesized from 1 μg of the extracted RNA using AMV reverse transcriptase (Promega, USA) and random hexamer (Gibco-BRL, USA). RT-PCR was performed using the synthesized cDNA as a template with a VEGF forward primer represented by SEQ. […] NO: 1 (5′-[sequence]-3′) and a VEGF reverse primer represented by SEQ. […] NO: 2 (5′-[sequence]-3′). RT-PCR conditions were as follows; predenaturation at 95° C. for 5 minutes, denaturation at 95° C. for 45 seconds, annealing at 56° C. for 45 seconds, polymerization at 72° C. for 60 seconds, 30 cycles from denaturation to polymerization. For the control, RT-PCR was performed again with an 18S forward primer represented by SEQ. […] NO: 3 (5′-[sequence]-3′) and an 18S reverse primer represented by SEQ. […] NO: 4 (5′-[sequence]-3′). RT-PCR conditions were as follows; predenaturation at 95° C. for 5 minutes, denaturation at 95° C. for 45 seconds, annealing at 56° C. for 45 seconds, polymerization at 72° C. for 60 seconds, 30 cycles from denaturation to polymerization.
The subject of data set [3] is VEGF. In words: Effects of CQ and TPEN on the expression of VEGF, a HIF-1α target gene (RT-PCR). In kind it is cell-based, human. The conditions noted are these: TPEN 5 μM. An excerpt:
ID. […] ID. NO: 2 (5′-[…]-3′). […] ID. […] ID. NO: 4 (5′-[…]-3′).

In data set [4] the test system is HRE (hypoxia-response element). In words: HRE dependent gene expression in HepG2 hepatoma cells (luciferase reporter gene assay). The conditions noted are these: p(HRE)4-luc, TPEN 5, 10 μM, CQ 10, 50 μM, 16 hours. In kind it is cell-based, human. The procedure:
Human HepG2 hepatoma cells were grown to the density of 5×10^4 and then transfected with 100 ng of HRE-driven reporter plasmid, p(HRE)4-luc together with plasmid pCHO110 which encodes β-galactosidase. The transfected human HepG2 hepatoma cells were cultured under normoxic condition and hypoxic condition and then treated with TPEN (5, 10 μM) and CQ (10, 50 μM) for 16 hours each. 48 hours after the transfection, luciferase activities were analyzed using the reporter gene assay system (Promega, USA) and normalized by β-galactosidase activities.
(In general: In a reporter assay the amount or activity of a reporter protein is the signal.)

The subject of data set [5] is GAL4-HIF-1α. As to the kind of experiment: HIF-1α transactivation, Gal4-driven reporter gene assay in HepG2 cells. It is filed as cell-based, human. The conditions noted are these: normoxic condition, CQ 10, 50 μM, TPEN 5 μM, 16 hours. As to the method: Human HepG2 hepatoma cells were cultured at the concentration of 5×10^4, which were transfected with 100 ng of Gal-4-driven reporter plasmid encoding the firefly luciferase gene under the control of the Gal4 binding site together with pGal4/HIF-1α plasmid which expresses HIF-1α linked to the DNA binding domain of the yeast Gal4 protein (amino acids 1-147). The transfected human HepG2 hepatoma cells were incubated in both normoxic and hypoxic conditions and then treated with CQ (10, 50 μM) for 16 hours in normoxic condition. 48 hours after the transfection, luciferase activities were analyzed using the reporter gene assay system (Promega, USA) and normalized by β-galactosidase activities.

In data set [6] the test system is EPO. The settings on record: normoxic condition, CQ 10, 50 μM, 16 hours; HepG2 and SH-SY5Y cells. As to the method: (§1) Total RNA was extracted by using RNase Spin column (Qiagen, USA). VEGF expression was investigated by Northern blot analysis. Northern blot hybridization was performed using ^32P-labeled VEGF cDNA probe and ^32P-labeled EPO cDNA probe. The Northern blotting was performed by the conventional method well known to those in the art (Sambrook et al., Molecular cloning, 1989).

In data set [7] the test system is VEGF. The conditions noted are these: normoxic condition, CQ 10, 50 μM, 16 hours; HepG2 and SH-SY5Y cells. The procedure: as §1
In data set [8] the target is T1, FIH-1 (Homo sapiens, UniProt Q9NWT6). The settings on record: F-HIF-1α peptide 4 μM, recombinant FIH-1, MALDI-TOF.
T1 sequence (Q9NWT6 whole entry): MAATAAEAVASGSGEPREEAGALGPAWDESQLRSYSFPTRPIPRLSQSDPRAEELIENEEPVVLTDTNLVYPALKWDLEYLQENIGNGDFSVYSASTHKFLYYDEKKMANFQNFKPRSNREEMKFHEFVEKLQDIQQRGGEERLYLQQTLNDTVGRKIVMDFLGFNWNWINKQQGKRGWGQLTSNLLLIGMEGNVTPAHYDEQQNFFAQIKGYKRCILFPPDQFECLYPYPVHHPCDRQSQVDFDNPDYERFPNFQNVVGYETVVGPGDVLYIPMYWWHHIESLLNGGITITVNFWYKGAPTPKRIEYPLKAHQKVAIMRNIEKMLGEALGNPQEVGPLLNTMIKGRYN
Procedure: The present inventors examined FIH-1 activity by measuring the asparagine hydroxylation of F-HIF-1α peptide. The peptide hydroxylation was measured by mass spectrophotometry.
Particularly, F-HIF-1α (788-822 amino acids: FITC-aca-[sequence]) containing fluorescein and aca (aminocaproic acid) linker (AnyGen, KwangJu, Korea) at N-terminal was reacted with FIH-1 protein. The F-HIF-1α peptide was incubated at a final concentration of 4 μM with 2.8 μg of recombinant FIH-1 in reaction solution [20 mM Tris buffer (pH 7.5), 5 mM KCl, 1.5 mM MgCl2, 100 μM α-ketoglutarate and 400 μM ascorbic acid: final volume 50 μl]. After incubation with agitation for 2 hours at room temperature, excess salts were removed with ZipTipC18 (Millipore, USA). The F-HIF-1α peptide was eluted from the tip with a-cyano-4-hydroxycinnamic acid in acetonitrile/water (50:50 v/v) containing 0.1% TFA followed by washing with distilled water containing 0.1% TFA. The eluted peptide solution was transferred to a MALDI sample plate and MALDI-TOF measurements were performed with a Voyager analyzer (Applied Biosystems, USA).
For data set [9] the following is noted: cited from earlier work.
The conditions of data set [10]: in vivo; cited from earlier work.
For data set [11] the following is noted: used as an antibiotic in the mid-1900s, Japan; cited from earlier work.
Data set [12] has as its system APP2576 transgenic mice. The conditions noted are these: cited from earlier work.
Data set [13] has as its system patients with Alzheimer's disease. The conditions noted are these: phase II clinical trial; cited from earlier work.
For data set [14], the system named is human cancer cell lines. The conditions noted are these: several human cancer cell lines; cited from earlier work.
The target in data set [15] is T1, FIH-1. As to the kind of experiment: In vitro FIH-1 activity (capture of radio-labeled HIF-1α by GST-CBP). It is filed as biochemical. On the set-up: histidine tag; made in house; host or cells: E. coli. As to the method: The human FIH-1 gene (AF395830) was cloned into pET28a vector (Novagen, USA) and FIH-1 was overexpressed in E. coli as a histidine-tagged fusion protein and purified by Ni-affinity chromatography. The fusion protein was purified by gel-filtration chromatography (Hi-Load Superdex 200) and concentrated by ultrafiltration (Choi et al., Mol Pharmacol 68:1803-1809, 2005).
The resin-bound GST-CBP N-domain (amino acids 1-450) (Kamei et al., Cell 85:403-414, 1996) was then added to 1 μg of each mixture in 500 μl of binding buffer (200 mM Tris-HCl (pH 8.0), 150 mM NaCl, 20 μM ZnCl2, 0.5 mM DTT) and incubation continued for one hour at 4° C. Glutathione-uniflow resin bound protein was washed four times with 1 ml of 0.1% Nondiet P-40 containing binding buffer, and visualized by SDS-PAGE by eluting using SDS sample buffer (Dann et al., Proc Natl Acad Sci USA 99:15351-15356, 2002). The present inventors substituted the asparagine-803 residue of HIF-1α with alanine to generate HIF-1α mutant [HIF-1α-C(N803A)], followed by investigation on FIH-1 activity by the same manner as described above.
Radio-labeled HIF-1α was reacted with the purified recombinant FIH-1, in the presence or absence of CQ or TPEN. FIH-1 was expected to […] the asparagine-803 residue of HIF-1α and thus inhibit the interaction with CBP binding to HIF-1α transactivation domain (Mahon, P. C. et al., Genes Dev. 15, 2675-2686, 2001; Dannm C. E. R., et al., Proc. Natl. Acad. Sci. USA 99, 15351-15356, 2002; Lando, D., et al., Science 295, 858-861, 2002; Freedman, S. J. et al., Proc. Natl. Acad. Sci. USA 99, 5367-5372, 2002).

Where [16] appears, read: 10 μM solution 10 μl (lower amount, 30.3-39.7 ng).
[17] abbreviates: 50 μM solution 10 μl (higher amount, 151.5-198.5 ng).

Take `Oc1c(I)cc(I)c2cccnc12` [B, 5,7-diiodo-8-hydroxyquinoline]: the entries for the “Angiogenesis/total (No.)” value in data set [1] (setting [16]) and in data set [1] (setting [17]) were 5/7 and 4/6, respectively. In addition, in data set [1], the angiogenesis entry is recorded as “promote angiogenesis”.

As to `Oc1c(Br)cc(Br)c2cccnc12` [C, 5,7-dibromo-8-hydroxyquinoline], the “Angiogenesis/total (No.)” value in data set [1] (setting [16]) is listed as 4/6; in data set [1] (setting [17]), 3/5. The angiogenesis result in data set [1] is recorded as “promote angiogenesis”. For the same molecule, the “VEGF expression, % to the expression level induced by CQ” value in data set [2] is 60-70%.

With `Oc1c(I)cc(Cl)c2cccnc12` [CQ, 5-chloro-7-iodo-8-quinolinol], the VEGF expression result is “differed in their effects on VEGF expression” in [3] (HepG2 cells, normoxic, CQ 10, 100 μM); “increased VEGF expression” in data set [3] (SH-SY5Y cells, normoxic condition, CQ 10, 100 μM); “none of the control, TPEN and CQ increased VEGF expression” in data set [3] (hypoxic condition, 16 hours, CQ 100 μM, SH-SY5Y and HepG2 cells). Moreover, the “HIF-1α dependent hypoxia-response element (HRE) activity” value in [4] is “induced HIF-1α dependent hypoxia-response element (HRE) activity”. Moreover, in [5], the “transactivation activity of HIF-1α” value was “increased transactivation activity of HIF-1α”. Further, the “expression of EPO” value in [6] is “increased expressions of VEGF and EPO”. The “expression of VEGF” value in data set [7] was “increased expressions of VEGF and EPO”. In addition, the “Angiogenesis/total (No.)” value in [1] (setting [16]) and in data set [1] (setting [17]) was 8/12 throughout. The angiogenesis entry in data set [1] is “promote angiogenesis”. The “asparagine-hydroxylating activity of FIH-1” value in [8] is listed as “inhibits the asparagine-hydroxylating activity of FIH-1”. The “pKa value, Ca2+” value in data set [9] (Ca^2+) is reported as 8.1. For the same molecule, the “pKa value, Cu2+” value in data set [9] (Cu^2+) is listed as 15.8. Besides, in [9] (Mg^2+), the “pKa value, Mg2+” value is reported as 8.6. For the same molecule, the “pKa value, Zn2+” value in [9] (Zn^2+) is on record as 12.5. Further, the “crossing of the blood-brain barrier” value in data set [10] is listed as “able to cross the blood-brain barrier”. Moreover, in data set [11], the “adverse effect in people” value is given as “caused subacute myelo-optic neuropathy”. Moreover, the “amyloid beta plaques and serum levels of amyloid beta” value in data set [12] was “reduced both amyloid beta plaques and serum levels of amyloid beta”. In addition, in [12], the systemic adverse effects result is given as “without systemic adverse effects”. The cognitive decline entry in [13] is recorded as “slowed cognitive decline”. In addition, in data set [13], the “plasma amyloid beta concentrations” value was “decreased plasma amyloid beta concentrations”. The apoptotic cell death entry in data set [14] is listed as “causes apoptotic cell death”. In data set [15] (CQ 10 μM and 50 μM, interaction between HIF-1α and CBP as readout), the FIH-1 activity entry was “FIH-1 activity was reduced”. Also, the “interaction between CBP and HIF-1α-C(N803A) mutant” value in data set [15] (HIF-1α-C(N803A) mutant, presence or absence of CQ or FIH-1) was “did not change the interaction between CBP and HIF-1α-C (N803A)”. For the same molecule, the “effect of Cu(II) on the inhibition of FIH-1 activity by CQ” value in [15] (co-treatment with Cu(II)) is “failed to reverse the inhibitory effect of CQ”. For the same molecule, in [15] (co-treatment with Zn(II)), the “effect of Zn(II) on the inhibition of FIH-1 activity by CQ” value is listed as “failed to reverse the inhibitory effect of CQ”.

The record behind these values is patent US8658672B2, “HIF-1α activating agent” (University of Seoul Foundation of Industrial and Academic …, priority 2006, dated 2014).
